# Measurements: paper PMC7515946, “Targeting of Perforin Inhibitor into the Brain Parenchyma Via a Prodrug Approach Can Decrease Oxidative Stress and Neuroinflammation and Improve Cell Survival” (Molecular Neurobiology, 2020)
# Non-standard residues stand in square brackets, D forms with d. No end group written: not given here. Sta = CC(C)C[C@H](N)[C@@H](O)CC(=O)O
# Key:
# [1] = test system: caspase-3/-7; assay: Caspase-3/-7 in brain of LPS-induced neuroinflammation mice; format: in vivo, mouse; conditions: LPS 250 μg/kg i.p. for 3 days, relative to control
# Description: Adult male C57BL/6JOlaHsd mice (Jackson Laboratories, Bar Harbor, ME, USA) were supplied by Envigo (Venray, Netherlands). Mice were housed in stainless steel cages on a 12-h light (07:00–19:00) and 12-h dark (19:00–07:00) cycle at an ambient temperature of 22 ± 1 °C with a relative humidity of 50–60%. All experiments were carried out during the light phase. Tap water and food pellets (Lactamin R36; Lactamin AB, Södertälje, Sweden) were available ad libitum. Neuroinflammation was induced by the treatment with LPS 250 μg/kg i.p once per day for 3 consequent days followed by decapitation on the 4th day. The animals were allocated to one of four treatment groups (n = 6 per group): (1) LPS-treated mice, (2) mice treated with LPS and the studied compound (30 μmol/kg; i.v.) for 3 days and 120 min before the decapitation on the 4th day (preventative efficacy), (3) mice treated with LPS for 3 days and with the studied compound (30 μmol/kg; i.v.) only for the last 2 days, and (4) control mice treated with 0.9% NaCl solution i.p. once per day for 3 days. After decapitation, mouse blood and brain samples were collected. […] The plasma layer was centrifuged again at 12,000 × g to remove the platelets. Plasma was stored at − 80 °C until analysis. The brains were snap-frozen in liquid nitrogen and stored at − 80 °C until analysis.
# The effects of the compounds on the enzyme activity of caspase-3 and caspase-7 were evaluated from the snap-frozen mouse brain. Pieces of tissues (n = 3) were homogenized in 50 mM Tris–HCl (pH 7.4) 1:10 (w/v) with a bead mill homogenizer. […] The enzyme activity was measured with an Apo-ONE Homogenous Caspase-3/7 Assay kit (Promega Corporation, Madison, WI, USA) according to the manufacturer’s instruction. The assay was performed on 96-well plates, each sample having 3 replicates. Each of the sample wells contained 100 μL of the previously collected supernatant and 100 μL of the prepared Apo-ONE reagent. The blank measurement was carried out with the homogenization buffer and Apo-ONE reagent. Once all the samples and reagents were pipetted in the wells, the plate was carefully shaken for 30 s and left for incubation in dark at room temperature. The fluorescence was measured after the incubation with an EnVision 2104 Multilabel Reader (PerkinElmer, Waltham, MA, USA), with λex 499 nm and λem 521 nm. The measurement was repeated on multiple time points between 0.5 and 24 h.
# [2] = test system: prostaglandin E2 (PGE2) production; assay: Brain PGE2 production in LPS-induced mice; format: in vivo, mouse; conditions: LPS 250 μg/kg per day for 3 days; control 5.72 ± 1.83
# Description: Adult male C57BL/6JOlaHsd mice (Jackson Laboratories, Bar Harbor, ME, USA) were supplied by Envigo (Venray, Netherlands). Mice were housed in stainless steel cages on a 12-h light (07:00–19:00) and 12-h dark (19:00–07:00) cycle at an ambient temperature of 22 ± 1 °C with a relative humidity of 50–60%. All experiments were carried out during the light phase. Tap water and food pellets (Lactamin R36; Lactamin AB, Södertälje, Sweden) were available ad libitum. Neuroinflammation was induced by the treatment with LPS 250 μg/kg i.p once per day for 3 consequent days followed by decapitation on the 4th day. […]
# The effects of the studied compounds to inhibit PGE2 production in the mouse brain were evaluated after LPS-induction as curative and preventative treatments. […] The data were acquired using the Agilent MassHunter Workstation software (version B.06.00) and processed with the Quantitative Analysis (B.07.00) software. The lower limit of quantification (LLOQ) for PGE2 was 1 nM.
# [3] = test system: MCF-7 human breast adenocarcinoma cells; assay: Cell viability of MCF-7 cells with cisplatin co-treatment (resazurin); format: cell-based; conditions: 100 μM, 72 h incubation
# [4] = molecular target: T1, purified human β-site amyloid precursor protein (APP) cleaving enzyme 1 (BACE1) (Homo sapiens, UniProt P56817); assay: BACE1 FRET inhibition assay; format: biochemical; conditions: 0.25 μM, 30 min
# T1 construct: purchased AnaSpec, Inc. (Fremont, CA, USA), SensoLyte 520 BACE1 Assay kit
# From the text: A fluorometric assay was used to screen the inhibitory effect of the studied compounds on purified human β-site amyloid precursor protein (APP) cleaving enzyme 1 (BACE1) using a fluorescence resonance energy transfer (FRET) peptide technique (SensoLyte© 520 BACE1 Assay kit, AnaSpec, Inc., Fremont, CA, USA) according to the manufacturer’s protocol. […] The sequence of the FRET peptide has been derived from the β-secretase cleavage site of β-amyloid precursor protein (APP) with Swedish mutation, which enhances β-secretase to process APP resulting in an early onset of AD. Thus, active β-secretase cleaved the FRET substrate into two separate fragments resulting in the release of HiLyte™ Fluor 488 fluorescence that was measured by the Envision plate reader (EnVision, Perkin Elmer, Waltham, MA, USA) at λex 490 nm and λem 520 nm.
# [5] = molecular target: T2, LAT1 (Mus musculus, UniProt Q9Z127); assay: Ability to bind to LAT1: inhibition of [14C]-L-leucine uptake in astrocytes; format: cell-based; conditions: mouse primary astrocytes, 0.76 μM [14C]-L-leucine, 5 min, 37 °C
# T2 construct: endogenous in cells; host or cells: mouse primary astrocytes (C57BL/6JOlaHsd), cortex and hippocampi
# Description: For the transporter-binding studies, the astrocytes were seeded on 24-well plates with a density of 10 × 10^4 cells/well 3 days before the experiments. After removal of the culture medium, the cells were carefully washed with pre-warmed HBSS (Hank’s balanced salt solution) containing choline chloride (125 mM), KCl (4.8 mM), MgSO4 (1.2 mM), KH2PO4 (1.2 mM), CaCl2 (1.3 mM), glucose (5.6 mM), and HEPES (25 mM) adjusted to pH 7.4 with 1 M NaOH. The cells were pre-incubated with 500 μL of pre-warmed HBSS at 37 °C for 5 min before the experiments. To study the ability of studied compounds to inhibit the uptake of a known LAT1 substrate, the cells were incubated at 37 °C for 5 min with an uptake buffer (HBSS, 250 μL) containing 0.76 μM (0.25 mCi/mL or […]) of [^14C]-L-leucine (PerkinElmer, Waltham, MA, USA) and 0.1–1000 μM of studied compound (or HBSS as blank). After incubation, the uptake was stopped by adding 500 μL of ice-cold HBSS, and the cells were washed two times with ice-cold HBSS (2 × 500 μL). The cells were then lysed with 500 μL of NaOH (0.1 M) for 60 min and the lysate was mixed with 3.5 mL of Emulsifier-Safe cocktail (Ultima Gold, PerkinElmer, Waltham, MA, USA). The radioactivity in the cells was measured by liquid scintillation counting (MicroBeta^2 counter, PerkinElmer Waltham, MA, USA). Half of the maximum inhibitory concentration (IC50) values were calculated by nonlinear regression analysis (fitting the curve to log (concentration) vs. remaining normalized viability).
# T2 sequence (Q9Z127 whole entry): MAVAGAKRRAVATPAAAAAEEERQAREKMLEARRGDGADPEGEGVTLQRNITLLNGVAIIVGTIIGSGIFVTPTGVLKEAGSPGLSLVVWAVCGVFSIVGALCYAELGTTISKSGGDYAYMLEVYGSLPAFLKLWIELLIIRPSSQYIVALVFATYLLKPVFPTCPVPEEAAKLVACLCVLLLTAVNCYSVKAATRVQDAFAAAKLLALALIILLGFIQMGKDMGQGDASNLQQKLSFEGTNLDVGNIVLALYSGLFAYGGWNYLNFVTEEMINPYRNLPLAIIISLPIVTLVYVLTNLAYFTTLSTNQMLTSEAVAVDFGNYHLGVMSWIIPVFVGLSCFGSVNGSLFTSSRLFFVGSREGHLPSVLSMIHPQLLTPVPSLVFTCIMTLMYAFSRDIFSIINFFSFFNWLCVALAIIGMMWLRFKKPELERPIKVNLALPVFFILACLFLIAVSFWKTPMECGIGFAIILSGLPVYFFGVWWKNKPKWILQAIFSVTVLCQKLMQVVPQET
# T2 sequence (P10852 whole entry partner): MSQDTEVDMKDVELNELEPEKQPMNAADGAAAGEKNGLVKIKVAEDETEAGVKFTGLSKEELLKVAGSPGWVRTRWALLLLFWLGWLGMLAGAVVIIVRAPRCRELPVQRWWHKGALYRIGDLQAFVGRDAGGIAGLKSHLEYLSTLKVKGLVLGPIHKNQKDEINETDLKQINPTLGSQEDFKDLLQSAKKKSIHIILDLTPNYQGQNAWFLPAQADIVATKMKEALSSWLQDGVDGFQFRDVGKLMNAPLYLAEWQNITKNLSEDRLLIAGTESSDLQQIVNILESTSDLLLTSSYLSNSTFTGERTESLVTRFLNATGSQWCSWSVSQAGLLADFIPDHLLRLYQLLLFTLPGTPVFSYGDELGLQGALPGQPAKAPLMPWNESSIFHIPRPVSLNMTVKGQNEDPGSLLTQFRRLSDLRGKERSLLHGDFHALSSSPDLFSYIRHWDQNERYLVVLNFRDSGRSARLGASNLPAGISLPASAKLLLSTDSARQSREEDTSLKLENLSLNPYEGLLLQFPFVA
# T1 sequence (P56817 22-501 limits assumed): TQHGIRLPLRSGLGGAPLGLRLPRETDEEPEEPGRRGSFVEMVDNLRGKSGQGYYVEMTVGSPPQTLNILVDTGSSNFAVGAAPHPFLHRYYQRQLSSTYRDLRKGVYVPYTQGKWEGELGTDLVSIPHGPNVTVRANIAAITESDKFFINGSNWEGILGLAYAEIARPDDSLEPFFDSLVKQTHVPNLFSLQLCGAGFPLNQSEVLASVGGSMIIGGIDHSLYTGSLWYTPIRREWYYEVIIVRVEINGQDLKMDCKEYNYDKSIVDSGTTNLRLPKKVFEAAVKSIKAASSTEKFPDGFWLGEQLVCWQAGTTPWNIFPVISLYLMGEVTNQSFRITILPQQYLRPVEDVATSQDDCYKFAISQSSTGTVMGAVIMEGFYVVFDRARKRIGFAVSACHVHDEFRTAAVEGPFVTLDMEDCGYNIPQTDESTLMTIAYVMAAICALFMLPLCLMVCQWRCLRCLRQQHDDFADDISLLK
compound,measurement,setting,value
lipopolysaccharide [LPS],"Brain caspase-3/-7 levels, LPS alone",[1],137%
same,"Brain PGE2 production, LPS alone",[2],16.56 ± 2.45 nmol of PGE2/mg tissue
"N.N.[Cl][Pt][Cl] [cisplatin, reference compound]",Inhibition of MCF-7 cell growth,[3],51%
"KTEEISEVN-Sta-VAEF-NH2 (KTEEISEVN[Sta]VAEF-NH2; N-terminus assumed; SMILES CC[C@H](C)[C@H](NC(=O)[C@H](CCC(=O)O)NC(=O)[C@H](CCC(=O)O)NC(=O)[C@@H](NC(=O)[C@@H](N)CCCCN)[C@@H](C)O)C(=O)N[C@@H](CO)C(=O)N[C@@H](CCC(=O)O)C(=O)N[C@H](C(=O)N[C@@H](CC(N)=O)C(=O)N[C@@H](CC(C)C)[C@@H](O)CC(=O)N[C@H](C(=O)N[C@@H](C)C(=O)N[C@@H](CCC(=O)O)C(=O)N[C@@H](Cc1ccccc1)C(N)=O)C(C)C)C(C)C) [BACE1 inhibitor, reference compound]",Inhibition of BACE1 activity,[4],ca. 86%
"CNC(=O)COc1ccc(-c2c(C#N)c(NC(=O)c3cccc(C[C@H](N)C(=O)O)c3)n3c(nc4ccccc43)c2C#N)cc1 [LAT1 inhibitor, KMH-233, reference compound]",IC50,[5],14.4 ± 1.2 µM
same,IC50,[5]; listed as LAT1-inhibitor,14 µM
